Legend:
[1] = in biological milieu; estimated; cited from earlier work
[2] = test system: precontracted bovine coronary artery rings; experiment: Vasorelaxation of U46619-precontracted bovine coronary artery rings; format: cell-based; details: for fold more potent than 14,15-EET as vasorelaxant (ED50): ratio of ED50 versus 14,15-EET

| Molecule | fold more potent than 14,15-EET as vasorelaxant (ED50) [2] [fold] | also measured |
| --- | --- | --- |
| CCCCCC1OC1C/C=C\C/C=C\C/C=C\CCCC(=O)O (stereo not shown) [14,15-EET, 14,15-epoxyeicosa-5(Z),8(Z),11(Z)-trienoic acid] | – | half-life [1]: no more than seconds to minutes |
| CCCCCNC(=O)NCCCC/C=C\CCCCCNS(=O)(=O)c1ccccc1 [Compd 9] | – | improvement in the EC50 by a factor (versus parent free acid) ([2]; vasorelaxation EC50 compared with parent free acid): ~2 |
| CCCCCNC(=O)NCCCC/C=C\CCCCCCc1nnn[nH]1 [Compd 19, 1-(12-(1H-Tetrazol-5-yl)dodec-5(Z)-en-1-yl)-3-pentylurea] | 12 | – |
| N1-Butyl-N2-(12-(2-oxido-3H-1,2,3,5-oxathiadiazol-4-yl)dodec-5(Z)-en-1-yl)oxalamide [Compd 25] | 6 | – |

Source: PMC4148164 (Journal of Medicinal Chemistry, 2014)
